Test results published in US20120214822A1 (ASTRAZENECA AB, priority 2007, published 2012).

The compounds below were run against human active recombinant p38α-6His tagged (Homo sapiens, UniProt Q16539) (assay: P38 Alpha Enzyme Assay (AlphaScreen, biotinylated-ATF2 substrate)). Conditions: p38 alpha enzyme inhibition; means of replicate determinations; 4 h pre-incubation at 37° C.; SD of assay 0.2-0.3 log units.
Type: biochemical
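Further: 0.5 nM final p38α, reaction started with ATP and run 45 min at 37 °C, phospho-ATF2 read by antibody-based AlphaScreen, background wells quenched with EDTA before ATP.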

Chain of human active recombinant p38α-6His tagged (Q16539 whole entry): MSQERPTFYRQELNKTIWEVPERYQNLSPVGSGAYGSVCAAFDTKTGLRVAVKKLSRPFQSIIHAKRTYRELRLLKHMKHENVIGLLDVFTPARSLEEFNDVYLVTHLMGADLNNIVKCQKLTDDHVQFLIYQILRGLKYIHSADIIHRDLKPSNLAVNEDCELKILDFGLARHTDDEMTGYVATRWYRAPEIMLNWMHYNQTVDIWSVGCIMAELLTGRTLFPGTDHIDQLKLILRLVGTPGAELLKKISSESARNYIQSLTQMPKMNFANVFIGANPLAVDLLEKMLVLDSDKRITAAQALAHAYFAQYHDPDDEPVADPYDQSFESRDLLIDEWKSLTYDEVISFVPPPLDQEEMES

SMILES	pIC50
Cc1ccc(C(=O)NC2CC2)cc1-n1ccnc(NC2(c3ccccc3OCCNC3CCS(=O)(=O)C3)CC2)c1=O (centres unmarked) [Example 295, N-Cyclopropyl-3-[3-{[1-(2-{2-[(1,1-dioxidotetrahydrothiophen-3-yl)amino]ethoxy}phenyl)cyclopropyl]amino}-2-oxopyrazin-1(2H)-yl]-4-methylbenzamide]	9.5
Cc1ccc(C(=O)NC2CC2)cc1-n1ccnc(NC2(c3ccccc3OCCN3CCn4ccnc4C3)CC2)c1=O [Example 296, N-Cyclopropyl-3-{3-[(1-{2-[2-(5,6-dihydroimidazo[1,2-a]pyrazin-7(8H)-yl)ethoxy]phenyl}cyclopropyl)amino]-2-oxopyrazin-1(2H)-yl}-4-methylbenzamide]	9.1
Cc1ccc(C(=O)NC2CC2)cc1-n1ccnc(NC2(c3ccccc3OCCN3CCc4c(ncn4C)C3)CC2)c1=O [Example 297, N-Cyclopropyl-4-methyl-3-{3-[(1-{2-[2-(1-methyl-1,4,6,7-tetrahydro-5H-imidazo[4,5-c]pyridin-5-yl)ethoxy]phenyl}cyclopropyl)amino]-2-oxopyrazin-1(2H)-yl}benzamide]	9.4
CCCNCCOc1ccccc1C1(Nc2nccn(-c3cc(C(=O)NC4CC4)ccc3C)c2=O)CC1 [Example 298, N-Cyclopropyl-4-methyl-3-{2-oxo-3-[(1-{2-[2-(propylamino)ethoxy]phenyl}cyclopropyl)amino]pyrazin-1(2H)-yl}benzamide]	10.2
Cc1ccc(C(=O)NC2CC2)cc1-n1ccnc(NC2(c3ccccc3OC[C@H](O)CNCCO)CC2)c1=O [Example 299, N-Cyclopropyl-3-[3-({1-[2-({(2R)-2-hydroxy-3-[(2-hydroxyethyl)amino]propyl}oxy)phenyl]cyclopropyl}amino)-2-oxopyrazin-1(2H)-yl]-4-methylbenzamide]	10
CCNC[C@@H](O)COc1ccccc1C1(Nc2nccn(-c3cc(C(=O)NC4CC4)ccc3C)c2=O)CC1 [Example 300, N-Cyclopropyl-3-[3-{[1-(2-{[(2R)-3-(ethylamino)-2-hydroxypropyl]oxy}phenyl)cyclopropyl]amino}-2-oxopyrazin-1(2H)-yl]-4-methylbenzamide]	10.3
CNC[C@@H](O)COc1ccccc1C1(Nc2nccn(-c3cc(C(=O)NC4CC4)ccc3C)c2=O)CC1 [Example 301, N-Cyclopropyl-3-[3-{[1-(2-{[(2R)-2-hydroxy-3-(methylamino)propyl]oxy}phenyl)cyclopropyl]amino}-2-oxopyrazin-1(2H)-yl]-4-methylbenzamide]	10.1
Cc1ccc(C(=O)NC2CC2)cc1-n1ccnc(NC2(c3ccccc3OC[C@@H](O)CNCCO)CC2)c1=O [Example 302, N-Cyclopropyl-3-[3-({1-[2-({(2S)-2-hydroxy-3-[(2-hydroxyethyl)amino]propyl}oxy)phenyl]cyclopropyl}amino)-2-oxopyrazin-1(2H)-yl]-4-methylbenzamide]	10
CCNC[C@H](O)COc1ccccc1C1(Nc2nccn(-c3cc(C(=O)NC4CC4)ccc3C)c2=O)CC1 [Example 303, N-cyclopropyl-3-[3-{[1-(2-{[(2S)-3-(ethylamino)-2-hydroxypropyl]oxy}phenyl)cyclopropyl]amino}-2-oxopyrazin-1(2H)-yl]-4-methylbenzamide]	10.1
CNC[C@H](O)COc1ccccc1C1(Nc2nccn(-c3cc(C(=O)NC4CC4)ccc3C)c2=O)CC1 [Example 304, N-Cyclopropyl-3-[3-{[1-(2-{[(2S)-2-hydroxy-3-(methylamino)propyl]oxy}phenyl)cyclopropyl]amino}-2-oxopyrazin-1(2H)-yl]-4-methylbenzamide]	10.2
Cc1ccc(C(=O)NC2CC2)cc1-n1ccnc(NC(C)(C)c2ccccc2OC[C@H](N)CO)c1=O [Example 305, 3-[3-{[1-(2-{[(2R)-2-Amino-3-hydroxypropyl]oxy}phenyl)-1-methylethyl]amino}-2-oxopyrazin-1(2H)-yl]-N-cyclopropyl-4-methylbenzamide]	9.9
Cc1ccc(C(=O)NC2CC2)cc1-n1ccnc(NC(C)(C)c2ccccc2OC[C@@H](CO)N(C)C)c1=O [Example 306, N-Cyclopropyl-3-[3-{[1-(2-{[(2R)-2-(dimethylamino)-3-hydroxypropyl]oxy}phenyl)-1-methylethyl]amino}-2-oxopyrazin-1(2H)-yl]-4-methylbenzamide]	10.1
CNC[C@@H](O)COc1ccccc1C(C)(C)Nc1nccn(-c2cc(C(=O)NC3CC3)cc(F)c2C)c1=O [Example 307, N-Cyclopropyl-3-fluoro-5-[3-{[1-(2-{[(2R)-2-hydroxy-3-(methylamino)propyl]oxy}phenyl)-1-methylethyl]amino}-2-oxopyrazin-1(2H)-yl]-4-methylbenzamide]	10.3
CCNC[C@@H](O)COc1ccccc1C(C)(C)Nc1nccn(-c2cc(C(=O)NC3CC3)cc(F)c2C)c1=O [Example 308, N-Cyclopropyl-3-[3-{[1-(2-{[(2R)-3-(ethylamino)-2-hydroxypropyl]oxy}phenyl)-1-methylethyl]amino}-2-oxopyrazin-1(2H)-yl]-5-fluoro-4-methylbenzamide]	10.4
CCNC[C@H](O)COc1ccccc1C(C)(C)Nc1nccn(-c2cc(C(=O)NC3CC3)cc(F)c2C)c1=O [Example 309, N-Cyclopropyl-3-[3-{[1-(2-{[(2S)-3-(ethylamino)-2-hydroxypropyl]oxy}phenyl)-1-methylethyl]amino}-2-oxopyrazin-1(2H)-yl]-5-fluoro-4-methylbenzamide]	10.2
CNC[C@H](O)COc1ccccc1C(C)(C)Nc1nccn(-c2cc(C(=O)NC3CC3)cc(F)c2C)c1=O [Example 310, N-Cyclopropyl-3-fluoro-5-[3-{[1-(2-{[(2S)-2-hydroxy-3-(methylamino)propyl]oxy}phenyl)-1-methylethyl]amino}-2-oxopyrazin-1(2H)-yl]-4-methylbenzamide]	10
Cc1c(F)cc(C(=O)NC2CC2)cc1-n1ccnc(NC(C)(C)c2ccccc2OCCN)c1=O [Example 311, 3-[3-({1-[2-(2-Aminoethoxy)phenyl]-1-methylethyl}amino)-2-oxopyrazin-1(2H)-yl]-N-cyclopropyl-5-fluoro-4-methylbenzamide]	10.1
Cc1c(F)cc(C(=O)NC2CC2)cc1-n1ccnc(NC(C)(C)c2ccccc2OCCNCC(=O)O)c1=O [Example 312, N-(2-{2-[1-({4-[5-(Cyclopropylcarbamoyl)-3-fluoro-2-methylphenyl]-3-oxo-3,4-dihydropyrazin-2-yl}amino)-1-methylethyl]phenoxy}ethyl)glycine]	9.8
Cc1c(F)cc(C(=O)NC2CC2)cc1-n1ccnc(NC(C)(C)c2ccccc2OCCNCCC(=O)O)c1=O [Example 313, N-(2-{2-[1-({4-[5-(Cyclopropylcarbamoyl)-3-fluoro-2-methylphenyl]-3-oxo-3,4-dihydropyrazin-2-yl}amino)-1-methylethyl]phenoxy}ethyl)-beta-alanine]	9.9
Cc1c(F)cc(C(=O)NC2CC2)cc1-n1ccnc(NC2(c3ccccc3OCCN)CC2)c1=O [Example 314, 3-[3-({1-[2-(2-Aminoethoxy)phenyl]cyclopropyl}amino)-2-oxopyrazin-1(2H)-yl]-N-cyclopropyl-5-fluoro-4-methylbenzamide]	10.4
Cc1c(F)cc(C(=O)NC2CC2)cc1-n1ccnc(NC2(c3ccccc3OCCN(C)CCO)CC2)c1=O [Example 315, N-Cyclopropyl-3-fluoro-5-[3-{[1-(2-{2-[(2-hydroxyethyl)(methyl)amino]ethoxy}phenyl)cyclopropyl]amino}-2-oxopyrazin-1(2H)-yl]-4-methylbenzamide]	10
CNCCOc1ccccc1C(C)(C)Nc1nccn(-c2cc(C(=O)NOC)cc(F)c2C)c1=O [Example 316, 3-Fluoro-N-methoxy-4-methyl-5-{3-[(1-methyl-1-{2-[2-(methylamino)ethoxyl]phenyl}ethyl)amino]-2-oxopyrazin-1(2H)-yl}benzamide]	10.4
CNCCOc1ccccc1C1(Nc2nccn(-c3cc(C(=O)NOC)ccc3C)c2=O)CC1 [Example 317, N-Methoxy-4-methyl-3-{3-[(1-{2-[2-(methylamino)ethoxy]phenyl}cyclopropyl)amino]-2-oxopyrazin-1(2H)-yl}benzamide]	10.1
CCNCCOc1ccccc1C1(Nc2nccn(-c3cc(C(=O)NC4CC4)c(F)cc3C)c2=O)CC1 [Example 318, N-cyclopropyl-5-{3-[(1-{2-[2-(ethylamino)ethoxy]phenyl}cyclopropyl)amino]-2-oxopyrazin-1(2H)-yl}-2-fluoro-4-methylbenzamide]	8.2
CNCCOc1ccccc1C1(Nc2nccn(-c3cc(C(=O)NC4CC4)c(F)cc3C)c2=O)CC1 [Example 319, N-Cyclopropyl-2-fluoro-4-methyl-5-{3-[(1-{2-[2-(methylamino)ethoxy]phenyl}cyclopropyl)amino]-2-oxopyrazin-1(2H)-yl}benzamide]	8.1
CNCCSc1ccccc1C(C)(C)Nc1nccn(-c2cc(C(=O)NC3CC3)cc(F)c2C)c1=O [Example 320, N-Cyclopropyl-3-fluoro-4-methyl-5-[3-{[1-methyl-1-(2-{[2-(methylamino)ethyl]sulfanyl}phenyl)ethyl]amino}-2-oxopyrazin-1(2H)-yl]benzamide]	9.5
Cc1c(F)cc(C(=O)NC2CC2)cc1-n1ccnc(NC(C)(C)c2ccccc2SCCN)c1=O [Example 321, 3-{3-[(1-{2-[(2-Aminoethyl)sulfanyl]phenyl}-1-methylethyl)amino]-2-oxopyrazin-1(2H)-yl}-N-cyclopropyl-5-fluoro-4-methylbenzamide]	9.7
Cc1c(F)cc(C(=O)NC2CC2)cc1-n1ccnc(NC(C)(C)c2ccccc2SCCNCCO)c1=O [Example 322, N-Cyclopropyl-3-fluoro-5-[3-({1-[2-({2-[(2-hydroxyethyl)amino]ethyl}sulfanyl)phenyl]-1-methylethyl}amino)-2-oxopyrazin-1(2H)-yl]-4-methylbenzamide]	9.8
CNCCCc1ccccc1C(C)(C)Nc1nccn(-c2cc(C(=O)NC3CC3)cc(F)c2C)c1=O [Example 323, N-Cyclopropyl-3-fluoro-4-methyl-5-{3-[(1-methyl-1-{2-[3-(methylamino)propyl]phenyl}ethyl)amino]-2-oxopyrazin-1(2H)-yl}benzamide]	9.5
